# Test results: PubChem BioAssay (NCI)
# “And” between values parts separate entries of the source, which are not always exact repeats. Identical values can stand only once.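 Compound exposure: 48 hours, 5 concentrations, 96-well plates. Abbreviation: GI50, concentration required for 50% inhibition of growth. Definition used: TGI = concentration required for complete inhibition of growth.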
# How the values were obtained:
# Assay in all cases: DTP human tumour cell line panel, 48 h
# PC-3 prostate = test system: PC-3 prostate
# UO-31 renal = test system: UO-31 renal
# HCC-2998 colon = test system: HCC-2998 colon
# 786-0 renal = test system: 786-0 renal
# MDA-MB-435 = test system: MDA-MB-435
# UACC-62 melanoma = test system: UACC-62 melanoma
# KM12 colon = test system: KM12 colon
# A498 renal = test system: A498 renal
# SF-268 CNS = test system: SF-268 CNS
# BT-549 breast = test system: BT-549 breast
Compound,GI50 (PC-3 prostate),TGI (PC-3 prostate),GI50 (UO-31 renal),TGI (UO-31 renal),GI50 (HCC-2998 colon),TGI (HCC-2998 colon),GI50 (786-0 renal),TGI (786-0 renal),GI50 (MDA-MB-435),TGI (MDA-MB-435),GI50 (UACC-62 melanoma),TGI (UACC-62 melanoma),GI50 (KM12 colon),TGI (KM12 colon),GI50 (A498 renal),TGI (A498 renal),GI50 (SF-268 CNS),TGI (SF-268 CNS),GI50 (BT-549 breast),TGI (BT-549 breast)
CCOC(=O)Nc1ccc(-c2nc(-c3cccc(OC)c3)c(-c3ccnc(Br)c3)[nH]2)cc1,2520 nM,8.9 µM,2190 nM,7.75 µM,2.25 µM,6.23 µM,2.16 µM,> 100 µM,2730 nM,9.54 µM,1890 nM,4.18 µM,2510 nM,9.06 µM,1940 nM,7.06 µM,3.26 µM,> 100 µM,2190 nM,8.11 µM
COC1=Nc2ccccc2S(=O)(=O)C=C1,,28.7 µM,,12.5 µM,,36.9 µM,,10.1 µM,,24.8 µM,,37.4 µM,,28.4 µM,,33 µM,,48.6 µM,678 nM,19.1 µM
CN(CCCl)c1ccc(/C=C/C2=[N+](C)c3ccccc3C2(C)C)cc1,243 nM,10.6 µM,4390 nM,17.4 µM,1.6 µM,12.8 µM,3.9 µM,15.9 µM,415 nM,2.46 µM,482 nM,7.68 µM,355 nM,1.55 µM,1340 nM,12.6 µM,0.691 µM,13.5 µM,424 nM,4.85 µM
CNC1C(O)C(OC2C(N)CC(N)C(OC3OC(C(C)O)C(O)C(O)C3N)C2O)OCC1(C)O (stereo unspecified),,> 100 µM,,> 100 µM,,> 100 µM,,> 100 µM,,> 100 µM,,> 100 µM,,> 100 µM,,> 100 µM,,> 100 µM,,> 100 µM
O=[N+]([O-])c1ccc2ncccc2c1Cl,3750 nM,20.2 µM,5020 nM,> 100 µM,3.67 µM,14.2 µM,3.28 µM,20.4 µM,2180 nM,9.07 µM,5840 nM,20.4 µM,2170 nM,9.14 µM,10800 nM,31.3 µM,3.89 µM,13.9 µM,3290 nM,9.57 µM
CCCCCC/C=C\CCCCCCCCCC1=CC(=O)C=C(OC)C1=O,,11 µM,,14 µM,,27 µM,,17 µM,,13.8 µM,,16.9 µM,,19.2 µM,,13.5 µM,,19.3 µM,,13.1 µM
CCCCn1sc(=O)n(Cc2ccc(CNC(=O)OCc3ccc4c(Br)cc(Br)c(O)c4n3)cc2)c1=O,651 nM,> 100 µM,1050 nM,> 100 µM,4.25 µM,> 69.8 µM,1.58 µM,> 100 µM,257 nM,0.731 µM,916 nM,> 100 µM,374 nM,> 24.4 µM,105 nM,0.602 µM,1.05 µM,> 100 µM,406 nM,> 100 µM
O=C(NCCCCCCCCNC(=O)c1cccc2ccccc12)c1cccc2ccccc12,,> 100 µM,,27.4 µM,,> 100 µM,,23.3 µM,,> 100 µM,,> 79.9 µM,,> 100 µM,,56.8 µM,,> 81.8 µM,,> 100 µM
C#CCOc1cccc(Nc2ncnc3ccc(NC(=O)CCl)cc23)c1,581 nM,12.4 µM,312 nM,7.11 µM,3.71 µM,22.7 µM,0.208 µM,2.84 µM,1400 nM,20.2 µM,1650 nM,20.3 µM,776 nM,10.6 µM,4600 nM,21.4 µM,0.674 µM,10.3 µM,1660 nM,10.1 µM
O=[N+]([O-])c1ccc(Sc2c3ccccc3nc3ccccc23)nc1,,28.9 µM,,12.4 µM,,32.1 µM,,4.25 µM,,21.3 µM,,29.5 µM,,44.5 µM,,32.8 µM,,19 µM,,27.3 µM
CCN1C(=O)N(c2ccccc2)C2NN=c3s/c(=C4\C(=O)N(C(C)C)c5ccccc54)c(=O)n3C21 (stereo unspecified),1450 nM,> 77.3 µM,2350 nM,> 100 µM,3.5 µM,61.8 µM,1.95 µM,8.64 µM,283 nM,0.991 µM,626 nM,> 100 µM,977 nM,> 100 µM,367 nM,1.64 µM,2.1 µM,> 100 µM,1800 nM,18.9 µM
O=C1c2c(O)cc(O)cc2OC(c2ccc(O)cc2O)C1O (stereo unspecified),,> 100 µM,> 100000 nM,> 100 µM,> 100 µM,> 100 µM,> 100 µM,> 100 µM,,> 100 µM,> 100000 nM,> 100 µM,,> 100 µM,> 100000 nM,> 100 µM,> 100 µM,> 100 µM,,> 100 µM
COc1ccc2c(c1)[n+](=O)c(C(=O)/C=C/c1cc(OC)c(OC)c(OC)c1)c(C)n2[O-],27300 nM,> 100 µM,28000 nM,78.6 µM,42.9 µM,> 100 µM,12.8 µM,30.7 µM,> 100000 nM,> 100 µM,17200 nM,37.3 µM,> 100000 nM,> 100 µM,16400 nM,57.5 µM,8.15 µM,40.4 µM,12600 nM,28.9 µM
CCCSC1=NC2C(N(CC)C(=O)N2CC)N1/N=C/C=C/c1ccccc1[N+](=O)[O-] (stereo unspecified),3330 nM,> 100 µM,3860 nM,> 100 µM,2.57 µM,9.27 µM,4.61 µM,> 100 µM,2020 nM,7.24 µM,2810 nM,> 100 µM,3550 nM,> 100 µM,1590 nM,6.35 µM,4.69 µM,> 100 µM,2600 nM,8.5 µM
O=C1CCc2c(sc3[nH]c(=S)n(Cc4ccccc4)c(=O)c23)C1,616 nM,> 100 µM,2620 nM,9.7 µM,2.88 µM,14 µM,4 µM,> 100 µM,3430 nM,> 100 µM,2540 nM,13.2 µM,1730 nM,6.56 µM,3440 nM,> 100 µM,3.55 µM,> 100 µM,1820 nM,7.35 µM
COc1cnc2c(c1)C(=O)c1c-2n(CCCN2CCCC2)c(=O)c2cc(F)ccc12,420 nM,12.8 µM,152 nM,1.04 µM,2.65 µM,20.7 µM,0.257 µM,1.11 µM,490 nM,13.9 µM,471 nM,2.21 µM,284 nM,4.73 µM,344 nM,1.65 µM,0.411 µM,13.9 µM,850 nM,6.43 µM
CCc1nc(Cl)nc(Cl)c1Cl,,6.25 µM,,0.674 µM,,2.24 µM,,6.42 µM,,6.53 µM,,19 µM,,15.5 µM,,25.6 µM,,3.37 µM,,14.6 µM
C=C(C)[C@@H]1CC[C@]2(COC3CCCCO3)CC[C@]3(C)[C@H](CC[C@@H]4[C@@]5(C)C=C(C=O)C(=O)C(C)(C)[C@@H]5CC[C@]43C)[C@@H]12 (stereo partly specified),1100 nM,2.71 µM,1360 nM,2.74 µM,2.04 µM,4.2 µM,1.65 µM,3.09 µM,1050 nM,2.32 µM,1270 nM,3.55 µM,1370 nM,3.5 µM,368 nM,1.98 µM,1.34 µM,3.05 µM,1420 nM,2.78 µM
C#Cc1cccc(Nc2nc3ccc([N+](=O)[O-])cc3nc2Nc2cccc(C#C)c2)c1,220 nM,1.17 µM,321 nM,1.14 µM,0.341 µM,1.27 µM,0.226 µM,0.73 µM,265 nM,0.838 µM,302 nM,1.2 µM,299 nM,1.03 µM,227 nM,0.783 µM,0.313 µM,1.3 µM,294 nM,1.2 µM
O=C(OCc1ccc2c(Cl)cc(Cl)c(O)c2n1)c1cc2ccccc2[nH]1,407 nM,0.936 µM,164 nM,0.331 µM,1.51 µM,3.02 µM,0.275 µM,0.833 µM,318 nM,1.04 µM,478 nM,1.7 µM,1690 nM,3.38 µM,1630 nM,3 µM,1.5 µM,2.97 µM,265 nM,0.845 µM
Nc1nnc(Cn2c(-c3ccccc3)nc3ccc(Br)cc3c2=O)s1,38200 nM,> 100 µM,> 100000 nM,> 100 µM,42.6 µM,> 100 µM,58.7 µM,> 100 µM,45900 nM,> 100 µM,15200 nM,> 100 µM,25100 nM,> 100 µM,15100 nM,74 µM,> 100 µM,> 100 µM,58300 nM,> 100 µM
Cc1cc(C)nc(SC2=C(Nc3cccc(Cl)c3C)C(=O)N(Cc3ccccc3)C2=O)n1,> 160000 nM,> 160 µM,> 160000 nM,> 160 µM,> 160 µM,> 160 µM,> 160 µM,> 160 µM,> 160000 nM,> 160 µM,> 160000 nM,> 160 µM,> 160000 nM,> 160 µM,> 160000 nM,> 160 µM,> 160 µM,> 160 µM,> 160000 nM,> 160 µM
COc1ccc(-c2cc(-c3cc(OC)c(OC)c(OC)c3)c(C#N)c(N3CCOCC3)n2)cc1O,3600 nM,> 100 µM,11100 nM,> 100 µM,29.2 µM,> 100 µM,51.2 µM,> 100 µM,3280 nM,> 43.7 µM,60200 nM,> 100 µM,3060 nM,> 100 µM,> 21400 nM,> 77.9 µM,6 µM,> 100 µM,19900 nM,> 100 µM
CN(C[C@@H]1COCCO1)S(=O)(=O)Nc1ccc2ccc3ncc(-c4cnn(C)c4)cc3c(=O)c2c1,5670 nM,> 100 µM,1950 nM,> 100 µM,59.6 µM,> 100 µM,6.04 µM,> 100 µM,7130 nM,> 100 µM,3290 nM,> 100 µM,369 nM,> 100 µM,447 nM,2.18 µM,4.26 µM,> 100 µM,2010 nM,> 100 µM
NC(=O)/C=C/NC(=O)/C=N\O,,> 100 µM,,> 100 µM,,> 100 µM,,> 100 µM,,> 100 µM,,> 100 µM,,> 100 µM,,> 100 µM,,> 100 µM,,> 100 µM
Cc1c(NC(=O)OC[C@@H]2COCCN2)cn2ncnc(Nc3ccc4c(cnn4Cc4cccc(F)c4)c3)c12,> 10000 nM and 10200 nM,> 10 µM and 31.8 µM,1250 nM and 1550 nM,> 10 µM and 16.5 µM,> 10 µM and 12 µM,> 10 µM and 25 µM,8.46 µM and 6.1 µM,> 10 µM and 24.1 µM,> 10000 nM and 9970 nM,> 10 µM and 23 µM,> 10000 nM and 4820 nM,> 10 µM and 18.7 µM,> 10000 nM and 11500 nM,> 10 µM and 25.5 µM,532 nM and 1020 nM,> 10 µM and 15.5 µM,> 10 µM and 7.18 µM,> 10 µM and 24.5 µM,> 10000 nM and 8520 nM,> 10 µM and 22.7 µM
COc1ccc(-c2c(-c3cc(OC)c4c(c3)OCO4)noc2N)cc1,43.6 nM,60.1 µM,463 nM,35.5 µM,0.11 µM,18.3 µM,0.0845 µM,24.1 µM,,0.0251 µM,50 nM,20.7 µM,16.1 nM,0.827 µM,26.8 nM,0.342 µM,0.11 µM,> 91 µM,568 nM,38.7 µM
